The results in this text go back to the NIST ThermoML archive (doi:10.1016/j.jct.2013.08.016).

A short description of data set [1]: refractive index (Na D-line) (dimensionless). As to conditions: 101.33 kPa, Liquid, Standard Abbe refractometry.
The conditions of data set [2]: 101.3 kPa, Liquid, Capillary tube (Ostwald / Ubbelohde) method.
A short description of data set [3]: refractive index (Na D-line) (dimensionless); mn = molality of the nth substance listed, in mol/kg. Conditions: 101.3 kPa, Liquid, Standard Abbe refractometry, m2 = 0.
Data set [4] can be described thus: mn = molality of the nth substance listed, in mol/kg. As to conditions: 101.3 kPa, Liquid, m2 = 0; for viscosity: Capillary tube (Ostwald / Ubbelohde) method; for mass density: Pycnometric method; for speed of sound: Single path-length method.

± gives the expanded uncertainty stated by the source.

By refractive index is commonly meant the speed of light in vacuum divided by its phase velocity in the sample. One may read the viscosity as the internal friction of a fluid under shear. By mass density is commonly meant the mass of a sample divided by its volume. By speed of sound is commonly meant how fast a sound wave travels through the sample.

As for `O` [water], the refractive index was 1.3339 ± 0.0005 in data set [1] (278.15 K), 1.3334 ± 0.0005 in data set [1] (288.15 K) and 1.3325 ± 0.0005 in data set [1] (298.15 K). The viscosity in data set [2] (278.15 K) is given as 1.519 ± 0.032 mPa·s; in data set [2] (288.15 K), 1.138 ± 0.025 mPa·s; in data set [2] (298.15 K), 0.8903 ± 0.019 mPa·s.

Turning to `O` [water] + O=C1O[C@H]([C@@H](O)CO)C(O)=C1O, the results for the refractive index in data set [3] (278.15 K), in data set [3] (288.15 K) and in data set [3] (298.15 K) were 1.3339 ± 0.0005, 1.3334 ± 0.0005 and 1.3325 ± 0.0005, respectively. In addition, the viscosity in data set [4] (278.15 K) is 1.519 ± 0.032 mPa·s; in data set [4] (288.15 K), 1.138 ± 0.025 mPa·s; in data set [4] (298.15 K) it was 0.8903 ± 0.019 mPa·s. In addition, the mass density in data set [4] (278.15 K) is 999.96 ± 0.37 kg/m3. In data set [4] (278.15 K), the speed of sound amounted to 1426.2 ± 2.2 m/s.

For `O` [water] + O=C1O[C@H]([C@@H](O)CO)C([O-])=C1O.[Na+], the refractive index in data set [3] (278.15 K) worked out at 1.3339 ± 0.0005; in data set [3] (288.15 K), 1.3334 ± 0.0005; in data set [3] (298.15 K), 1.3325 ± 0.0005. Moreover, the viscosity is listed as 1.519 ± 0.032 mPa·s in data set [4] (278.15 K), 1.138 ± 0.025 mPa·s in data set [4] (288.15 K) and 0.8903 ± 0.019 mPa·s in data set [4] (298.15 K). Moreover, the mass density in data set [4] (278.15 K) was found to be 999.96 ± 0.38 kg/m3. In addition, in data set [4] (278.15 K), the speed of sound is given as 1426.2 ± 2.2 m/s.
